Results on one compound are retold here after patent publication US10889553B2, “Asymmetric triazole benzamide derivatives and the compositions and methods of treatment regarding the same” (NysnoBio Ireland DAC, priority 2017, dated 2021).

Where two headings read alike, the source gives them in different places.

Data set [1] is described as follows: Microsomal stability assay, rat liver microsomes. The format is in vitro ADME. The note with it: pH 7.4; rat liver microsomes 1.0 mg/mL, 1 μM compound, NADPH; read-out: RLM t1/2. The gist of the method: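 Compound at 1 μM final (1% DMSO) was incubated with rat or human liver microsomes (1.0 mg/mL) in 50 mM KH2PO4 pH 7.4, started with NADPH. Parent remaining at 0, 15, 30 and 60 min was measured by LC-MS/MS. kobs came from ln(% remaining) versus time, and T1/2=[…]/kobs.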

Data set [2] in a line: Microsomal stability assay, human liver microsomes. The format is in vitro ADME. The note with it: pH 7.4; human liver microsomes 1.0 mg/mL, 1 μM compound, NADPH; read-out: HLM t1/2. As to the method: Compounds were also tested for metabolic stability in both rat liver microsomes (RLM) and the compounds are tested for human liver microsomes (HLM) and their half-life is calculated (See Tables 5A and 5B). The assay was performed as follows. The total volume for each incubation was 250 μL. A 100 μM DMSO solution of compound (diluted from 10 mM stock solution) was spiked into 50 mM KH2PO4 (pH 7.4) buffer containing liver microsome at a concentration of 1.0 mg/mL. The reaction was initiated by the addition of 50 μL of 1 mM NADPH. The final concentration of each compound was 1 μM (1% DMSO). The positive controls, phenacetin for CYP1A2, diclofenac for CYP2C9, omeprazole for CYP2C19, dextromethorphan for CYP2D6 and midazolam for CYP3A4 were added to a separate tube with the final substrate concentrations of 1 μM (1% DMSO) for evaluating the enzyme activities in the liver microsomes. At 0, 15, 30 and 60 min, an aliquot of 15 μL reaction mixtures were removed and 200 μL of methanol (with internal standard of 25 ng/mL propranolol) was added to quench the reaction. The resulting mixture was centrifuged and supernatant was used for LC-MS/MS analysis.
The signals for each compound, or the metabolites for the probe substrates and the internal standard were integrated and the peak area ratios to internal standard were generated. Percent parent remaining at a specified timepoint was calculated based on the peak area ratios at time 0 (as 100%) for in vitro metabolic stability studies in liver microsome and hepatocyte. The observed rate constant (kobs) for the metabolism of substrates was calculated by plotting the natural log of percentage substrate remaining versus time of incubation with the slope being kobs. The half-life (T1/2) was calculated according to the following equation: T1/2=[…]
In general terms: Microsomes from liver hold many membrane-bound enzymes, among them those of drug oxidation.

Another data set has as its system A549 (lung). In words: Cancer cell proliferation assay (acid phosphatase). The format is cell-based. The note with it: Homo sapiens, A549. The gist of the method: (§1)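 Cells seeded at 4×10^4 cells/ml were incubated overnight at 37° C., 5% CO2, then exposed to compound at varying concentrations in triplicate for 72 hrs. Proliferation was read by acid phosphatase assay (p-nitrophenol phosphate, pH 5.5, 2 hours, 405 nm minus 620 nm) as percent inhibition versus DMSO controls.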

Another data set relates to LS-174T (colon). Briefly: Cancer cell proliferation assay (acid phosphatase). The format is cell-based. The note with it: Homo sapiens, LS174T; Table 6A; 72 hrs. The gist of the method:
as §1

Another data set has as its system Calu-6 (lung). In words: Cancer cell proliferation assay (acid phosphatase). The note with it: Homo sapiens, Table 6A, 72 hrs, read-out: Calu6 IC50. It is filed as cell-based. The gist of the method: as §1
A further data set relates to HCT-116 (colon). Briefly: Cancer cell proliferation assay (acid phosphatase). The format is cell-based. The note with it: Homo sapiens, HCT-116. The gist of the method: as §1
A further data set relates to TOV-21G (ovarian). In words: Cancer cell proliferation assay (acid phosphatase). The note with it: Homo sapiens, TOV21G. The format is cell-based. The gist of the method:
as §1

[3] abbreviates: Table 6D, another set of cell proliferation assay.

Regarding `Cc1ccccc1C(=O)Nc1nc(NC(=O)c2ccccc2C)n(-c2ccc(OC(F)(F)F)cc2)n1` [Compound 42, N,N′-(1-(4-(trifluoromethoxy)phenyl)-1H-1,2,4-triazole-3,5-diyl)bis(2-methylbenzamide)], the half-life at 1 μM in data set [1] was 3.85 h; in data set [2], over 8.33 h. Also, the IC50 in the data set on A549 (lung) (Table 6A, 72 hrs, read-out: A549 IC50) turned out to be 0.03 µM; in the data set on A549 (lung) (Table 6C, data of FIG. 2, read-out: IC50 (μM) A549 (lung)), 65 µM; in the data set on LS-174T (colon), 200 nM; with Calu-6 (lung), 60 nM; in the data set with HCT-116 (colon) (Table 6A, 72 hrs, read-out: HCT-116 IC50), 0.07 µM; with HCT-116 (colon) (Table 6C, data of FIG. 2, read-out: IC50 (μM) HCT-116 (colon)), 0.08 µM. For the same compound, the IC50 in the data set on HCT-116 (colon) (Table 6E, read-out: Proliferation IC50 (nM) CRC HCT-116) worked out at 0.087 µM; with TOV-21G (ovarian) (Table 6A, 72 hrs, read-out: TOV-21G IC50) it was 0.25 µM; in the data set on TOV-21G (ovarian) (Table 6C, data of FIG. 2, read-out: IC50 (μM) TOV-21G (ovarian)), 0.15 µM; in the data set with TOV-21G (ovarian) (Table 6E, read-out: Proliferation IC50 (nM) Ovarian TOV21G), 0.109 µM. For the same compound, the results for the EC50 in the data set with A549 (lung) (setting [3]), with HCT-116 (colon) (setting [3]) and with TOV-21G (ovarian) (setting [3]) were 72 nM, 87 nM and 74 nM, respectively.

Usually EC50 stands for the concentration at which the effect is half-maximal. A high value points to a need for much substance.
